According to patent US11952371B1, “2-[(1,3-benzoxazol-2-yl)imino]-5,5-diphenylimidazolidin-4-one as an antimicrobial compound” (KING FAISAL UNIVERSITY, priority 2023, dated 2024):

Experiments:
Bacillus cereus = assay: Agar plate disc-diffusion, antibacterial activity; format: cell-based
Method: (§1) The agar plate disc-diffusion method was applied. […] The discs were then placed onto the surface of agar plates (nutrient agar for bacteria and Sabouraud's dextrose agar for fungi) seeded with the test organism. Each plate contained 15 mL of the agar medium, previously seeded with 0.2 mL of the broth culture of each organism pregrown for 18 hours. The plates were incubated at 37° C. for 48 hours, and 72 hours for fungi. The inhibition zones were measured in millimeter. Discs impregnated with DMSO were used as a control, and its inhibition zone was subtracted from the tested compound actual inhibition zone.
(§2) The results of the antimicrobial testing can be observed in Tables 1 and 2, below, with ciprofloxacin serving as a reference.

Escherichia coli = assay: Agar plate disc-diffusion, antibacterial activity; format: cell-based
Method: as §1, §2

Pseudomonas aeruginosa = assay: Agar plate disc-diffusion, antibacterial activity; format: cell-based
Method: as §1, §2

Staphylococcus aureus = assay: Agar plate disc-diffusion, antibacterial activity; format: cell-based
Method: as §1, §2

Aspergillus flavus = assay: Agar plate disc-diffusion, antifungal activity; format: cell-based
Method: as §1, §2

[1] = system: Chrysosporium keratinophilum; assay: Agar plate disc-diffusion, antifungal activity; format: cell-based
Method: as §1, §2

[2] = A = concentration of comp. = 10,000 μL
[3] = B = concentration of comp. = 30,000 μL
[4] = C = concentration of comp. = 50,000 μL

melting point [°C] | SMILES | inhibition zone (Bacillus cereus; [2]) [millimeter] | inhibition zone (Bacillus cereus; [3]) [millimeter] | inhibition zone (Bacillus cereus; [4]) [millimeter] | inhibition zone (Escherichia coli; [2]) [millimeter] | inhibition zone (Escherichia coli; [3]) [millimeter] | inhibition zone (Escherichia coli; [4]) [millimeter] | inhibition zone (Pseudomonas aeruginosa; [2]) [millimeter] | inhibition zone (Pseudomonas aeruginosa; [3]) [millimeter] | inhibition zone (Pseudomonas aeruginosa; [4]) [millimeter] | inhibition zone (Staphylococcus aureus; [2]) [millimeter] | inhibition zone (Staphylococcus aureus; [3]) [millimeter] | inhibition zone (Staphylococcus aureus; [4]) [millimeter] | inhibition zone (Aspergillus flavus; [2]) [millimeter] | inhibition zone (Aspergillus flavus; [3]) [millimeter] | inhibition zone (Aspergillus flavus; [4]) [millimeter] | inhibition zone [1, 2] [millimeter] | inhibition zone [1, 3] [millimeter] | inhibition zone [1, 4] [millimeter]
 | O=C(O)c1cn(C2CC2)c2cc(N3CCNCC3)c(F)cc2c1=O [Cip., ciprofloxacin, reference compound] | 29 | 31 | 42 | 30 | 39 | 60 | 29 | 30 | 53 | 42 | 44 | 53 | 29 | 30 | 42 | 29 | 30 | 53
234 to 236 | O=C1N/C(=N/c2nc3ccccc3o2)NC1(c1ccccc1)c1ccccc1 [compound 3, 2-[(1,3-benzoxazol-2-yl)imino]-5,5-diphenylimidazolidin-4-one] | 27 | 30 | 42 | 25 | 33 | 39 | 26 | 30 | 48 | 16 | 19 | 23 | 19 | 23 | 37 | 22 | 25 | 47
